Source: the NIST ThermoML archive (doi:10.1016/j.jct.2015.10.017)
± gives the expanded uncertainty stated by the source.

Experiments:
[1] = mn = molality of the nth substance listed, in mol/kg; settings: 100 kPa, Liquid; for viscosity: Falling or rolling sphere viscometry; for speed of sound: Frequency=3 MHz, Sing-around technique in a fixed-path interferometer; for mass density: Vibrating tube method
[2] = 100 kPa, Liquid, Falling or rolling sphere viscometry

CC(=O)NCC(=O)O [N-acetylglycine] + O
[1]
Settings | mass density, m1 = 0.05 [kg/m3] | mass density, m1 = 0.1 [kg/m3] | mass density, m1 = 0.2 [kg/m3] | speed of sound, m1 = 0.05 [m/s] | speed of sound, m1 = 0.1 [m/s] | speed of sound, m1 = 0.2 [m/s] | viscosity, m1 = 0.05 [mPa·s] | viscosity, m1 = 0.1 [mPa·s] | viscosity, m1 = 0.2 [mPa·s]
288.15 K | 1001.32 ± 10 | 1002.84 ± 10 | 1005.54 ± 10 | 1468.9 ± 10 | 1472.1 ± 10 | 1476.4 ± 10 | 1.091 ± 0.22 | 1.151 ± 0.23 | 1.187 ± 0.24
293.15 K | 1000.04 ± 10 | 1001.89 ± 10 | 1004.84 ± 10 | 1484.8 ± 10 | 1486.7 ± 10 | 1491.2 ± 10 | 0.9664 ± 0.19 | 1.019 ± 0.2 | 1.048 ± 0.21
298.15 K | 998.801 ± 10 | 1000.37 ± 10 | 1003.79 ± 10 | 1499.6 ± 10 | 1501.3 ± 10 | 1504.5 ± 10 | 0.863 ± 0.17 | 0.9071 ± 0.18 | 0.9357 ± 0.19
303.15 K | 997.363 ± 10 | 998.824 ± 10 | 1002.6 ± 10 | 1514 ± 10 | 1516.3 ± 10 | 1519 ± 10 | 0.8379 ± 0.17 | 0.8579 ± 0.17 | 0.8904 ± 0.18
308.15 K | 995.711 ± 10 | 997.285 ± 10 | 1001.3 ± 10 | 1521.7 ± 10 | 1524.7 ± 10 | 1527.2 ± 10 | 0.7411 ± 0.15 | 0.7624 ± 0.15 | 0.7856 ± 0.16

O [water] + O=P([O-])([O-])O.[Na+].[Na+]
[1], m2 = 0
Settings | viscosity [mPa·s]
288.15 K | 1.043 ± 0.21
293.15 K | 0.9312 ± 0.19
298.15 K | 0.8319 ± 0.17
303.15 K | 0.7981 ± 0.16
308.15 K | 0.7202 ± 0.14

O [water] + O=P([O-])([O-])O.[K+].[K+]
[1], m2 = 0
Settings | viscosity [mPa·s]
288.15 K | 1.043 ± 0.21
293.15 K | 0.9312 ± 0.19
298.15 K | 0.8319 ± 0.17
303.15 K | 0.7981 ± 0.16
308.15 K | 0.7202 ± 0.14

O [water] + CC(=O)NCC(=O)O
[1], m2 = 0
Settings | viscosity [mPa·s]
288.15 K | 1.043 ± 0.21
293.15 K | 0.9312 ± 0.19
298.15 K | 0.8319 ± 0.17
303.15 K | 0.7981 ± 0.16
308.15 K | 0.7202 ± 0.14

O [water]
[2]
Settings | viscosity [mPa·s]
288.15 K | 1.043 ± 0.21
293.15 K | 0.9312 ± 0.19
298.15 K | 0.8319 ± 0.17
303.15 K | 0.7981 ± 0.16
308.15 K | 0.7202 ± 0.14
